Patent US20160297763A1, “Heteroaryl hydroxamic acid derivatives and their use in the treatment, amelioration or prevention of a viral disease” (priority 2011, published 2016)
Where two headings read alike, the source gives them in different places.

What was measured:
[1] = system: influenza A virus A/Aichi/2/68 (H3N2); assay: Cytopathic effect (CPE) assay H3N2; type: cell-based, influenza A virus (H3N2) on MDCK cells; conditions: for inhibition at 50 µM: H3N2, activity conc 50 (μM per method); for inhibition at 2 µM: H3N2, activity conc 2 (μM per method); for CPE H3N2 reduction (%): activity conc 50 (μM per method); for inhibition at 20 µM: H3N2, activity conc 20 (μM per method)
Protocol: A possible measure of the […] antiviral activity of the compounds having the formula I or II is the CPE assay disclosed herein. […] In this connection, the reduction in the virus-mediated cytopathic effect (CPE) upon treatment with the compounds was calculated as follows: The cell viability of infected-treated and uninfected-treated cells was determined using an ATP-based cell viability assay (Promega). The response in relative luminescent units (RLU) of infected-untreated samples was subtracted from the response (RLU) of the infected-treated samples and then normalized to the viability of the corresponding uninfected sample resulting in % CPE reduction.
The influenza A virus (IAV) was obtained from American Tissue Culture Collection (A/Aichi/2/68 (H3N2); VR-547). Virus stocks were prepared by propagation of virus on Mardin-Darby canine kidney (MDCK; ATCC CCL-34) cells and infectious titres of virus stocks were determined by the 50% tissue culture infective dose (TCID50) analysis as described in Reed, L. J., and H. Muench. 1938, Am. J. Hyg. 27:493-497.
MDCK cells were seeded in 96-well plates at 2×10^4 cells/well using DMEM/Ham's F-12 (1:1) medium containing 10% foetal bovine serum (FBS), 2 mM L-glutamine and 1 antibiotics (all from PAA). Until infection the cells were incubated for 5 hrs at 37° C., 5.0 CO2 to form a ˜80% confluent monolayer on the bottom of the well. Each test compound was dissolved in DMSO and generally tested at 25 μM and 250 μM. In those cases where the compounds were not soluble at that concentration they were tested at the highest soluble concentration. The compounds were diluted in infection medium (DMEM/Ham's F-12 (1:1) containing 5 μg/ml trypsin, and 1% antibiotics) for a final plate well DMSO concentration of 1%. The virus stock was diluted in infection medium (DMEM/Ham's F-12 (1:1) containing 5 μg/ml Trypsin, 1% DMSO, and 1% antibiotics) to a theoretical multiplicity of infection (MOI) of 0.05.
After removal of the culture medium and one washing step with PBS, virus and compound were added together to the cells. In the wells used for cytotoxicity determination (i.e. in the absence of viral infection), no virus suspension was added. Instead, infection medium was added. Each treatment was conducted in two replicates. After incubation at 37° C., 5% CO2 for 48 hrs, each well was observed microscopically for apparent cytotoxicity, precipitate formation, or other notable abnormalities. Then, cell viability was determined using CellTiter-Glo luminescent cell viability assay (Promega). The supernatant was removed carefully and 65 μl of the reconstituted reagent were added to each well and incubated with gentle shaking for 15 min at room temperature. Then, 60 μl of the solution was transferred to an opaque plate and luminescence (RLU) was measured using Synergy HT plate reader (Biotek).
Relative cell viability values of uninfected-treated versus uninfected-untreated cells were used to evaluate cytotoxicity of the compounds. Substances with a relative viability below 80% at the tested concentration were regarded as cytotoxic and retested at lower concentrations.
Reduction in the virus-mediated cytopathic effect (CPE) upon treatment with the compounds was calculated as follows: The response (RLU) of infected-untreated samples was subtracted from the response (RLU) of the infected-treated samples and then normalized to the viability of the corresponding uninfected sample resulting in % CPE reduction.

[2] = Influenza A virus, read-out: CPE H3N2 reduction (%)
[3] = Influenza A virus, H3N2, activity conc 5 (μM per method), read-out: CPE H3N2 reduction (%)

## Cc1c(-c2cccc(CN(C)C)c2)sc2nc(N)[nH]c(=O)c12
other
  melting point: 207 to 212 °C

## Cl.O=C(c1cc(NS(=O)(=O)Cc2cccc(C(F)(F)F)c2)ccn1)N(O)Cc1ccccc1
other
  melting point: 178 to 182 °C

## CN1CC=C(c2ccnc(C(=O)N(O)Cc3ccccc3)c2)CC1
other
  melting point: 135 to 155 °C

## Cc1c(-c2ccccc2)sc2nc(NCCN)[nH]c(=O)c12
other
  melting point: 192 to 194 °C

## Cc1c(-c2ccccc2)sc2nc(NCCNC(=O)CCN3CCN(C)CC3)[nH]c(=O)c12
other
  melting point: 235 to 245 °C

## O=C(c1cc(C2=CC3CCC(C2)N3)ccn1)N(O)Cc1ccccc1 (stereo not shown)
other
  melting point: 95 to 100 °C

## O=C(c1cc(-c2ccccc2)ccn1)N(O)Cc1ccc(F)cc1
other
  melting point: 135 to 140 °C

## Cc1c(-c2cc(C#N)ccc2F)sc2nc(N)[nH]c(=O)c12
other
  melting point: 332 to 336 °C

## Cc1c(-c2ccccc2)sc2nc(NCCO)[nH]c(=O)c12
other
  melting point: 227 to 229 °C

## Cc1c(-c2cccc(C#N)c2)sc2nc(N)[nH]c(=O)c12
other
  melting point: > 350 °C

## Cc1c(-c2ccccc2)sc2nc(Nc3ccccc3)[nH]c(=O)c12
other
  melting point: 270 to 290 °C

## CCONC(=O)c1cc(NCC2CCN(Cc3ccccc3)CC2)ccn1.Cl.Cl (hydrate or solvate)
other
  melting point: 125 to 130 °C

## Cl.O=C(NO)c1cc(NS(=O)(=O)Cc2cccc(Cl)c2)ccn1
other
  melting point: 198 to 204 °C

## Cl.O=C(NO)c1cc(NS(=O)(=O)Cc2cccc(Br)c2)ccn1
other
  melting point: 197 to 205 °C

## CCONC(=O)c1cc(NCc2cccc(OCc3ccccc3)c2)ccn1.Cl
other
  melting point: 70 to 75 °C

## O=C(Nc1ccnc(C(=O)NO)c1)c1ccccc1
other
  melting point: 175 to 184 °C

## Cc1c(-c2ccccc2)sc2nc(NCCN3CCOCC3)[nH]c(=O)c12
other
  melting point: 240 to 246 °C

## Cl.O=C(c1cc(NS(=O)(=O)Cc2cccc(Cl)c2)ccn1)N(O)Cc1ccccc1
other
  melting point: 115 to 125 °C

## Cc1c(-c2ccc(Cl)c(O)c2)sc2nc(N)[nH]c(=O)c12
other
  melting point: > 350 °C

## Cc1c(-c2ccccc2)sc2nc(N3CCOCC3)[nH]c(=O)c12
other
  melting point: 300 to 320 °C

## Cl.O=C(NO)c1cc(NS(=O)(=O)Cc2ccc(Cl)c(Cl)c2)ccn1
other
  melting point: 228 to 238 °C

## O=C(NO)c1cc(NS(=O)(=O)Cc2cccc(F)c2)ccn1
[1]; [2]
  inhibition at 50 µM: -2.4%

## CN1CCN(c2ccnc(C(=O)N(C)O)c2)CC1
[1]; [2]
  inhibition at 50 µM: 2.6%

## CC(C)(C)OC(=O)N1C=C(c2ccnc(C(=O)N(O)Cc3ccccc3)c2)CCC1
[1]; [2]
  inhibition at 2 µM: 3.9%

## O=C(c1cc(NS(=O)(=O)Cc2ccccc2)ccn1)N(O)Cc1ccccc1 [drawing 209]
[1]; [2]
  inhibition at 50 µM: 6.2%

## Cc1c(-c2ccccc2)sc2nc(Nc3ccccc3)[nH]c(=O)c12 [SAV-7638]
[1]; Influenza A virus, H3N2, read-out: CPE H3N2 reduction (%), activity conc 5 (μM per method)
  inhibition at 5 µM: 8.7%

## CC(C)(C)OC(=O)N1CCC=C(c2ccnc(C(=O)N(O)Cc3ccccc3)c2)C1 [drawing 256]
[1]; [3]
  inhibition at 5 µM: 10.2%

## Cl.O=C(NO)c1cc(NS(=O)(=O)Cc2cc(Cl)cc(Cl)c2)ccn1 [drawing 276]
[1]
  CPE H3N2 reduction (%): 9.3%

## O=C(NO)c1cc(NCc2ccccc2)ccn1
[1]; [3]
  inhibition at 5 µM: -0.5%

## O=C(c1cc(N2CCC(N3CCCC3)CC2)ccn1)N(O)Cc1ccccc1 [drawing 226]
[1]; [2]
  inhibition at 50 µM: 10.7%

## O=C(NO)c1cc(N2CCCCC2)ccn1
[1]; [3]
  inhibition at 5 µM: -4.1%

## O=C(c1cc(NS(=O)(=O)Cc2ccc(F)cc2)ccn1)N(O)Cc1ccccc1
[1]; [2]
  inhibition at 50 µM: -1.1%

## CN1CC=C(c2ccnc(C(=O)N(O)Cc3ccccc3)c2)CC1 [drawing 260]
[1]; [2]
  inhibition at 50 µM: 10.6%

## O=C(c1cc(N2CCC(F)(F)CC2)ccn1)N(O)Cc1ccccc1
[1]; [2]
  inhibition at 50 µM: -3.2%

## O=C(c1cc(C2=CCCNC2)ccn1)N(O)Cc1ccccc1
[1]; [2]
  inhibition at 50 µM: 9.5%

## O=C(c1cc(C2CCCCC2)ccn1)N(O)Cc1ccccc1 [drawing 258]
[1]; [3]
  inhibition at 5 µM: -0.5%

## O=C(c1cc(C2=CCCCC2)ccn1)N(O)Cc1ccccc1 [drawing 257]
[1]; Influenza A virus, H3N2, activity conc 1 (μM per method), read-out: CPE H3N2 reduction (%)
  inhibition at 1 µM: 3.4%

## O=C(c1ccc(N2CCCC2)cn1)N(O)Cc1ccccc1 [drawing 180]
[1]; Influenza A virus, H3N2, activity conc 25 (μM per method), read-out: CPE H3N2 reduction (%)
  inhibition at 25 µM: 1%

## O=C(NO)c1cc(N2CCOCC2)ccn1 [drawing 212]
[1]; [2]
  inhibition at 50 µM: -7.1%

## CON(C)C(=O)c1cccc(C)n1
[1]; [2]
  inhibition at 50 µM: -0.9%

## CN(Cc1ccccc1)c1ccnc(C(=O)N(O)Cc2ccccc2)c1
[1]; [3]
  inhibition at 5 µM: 3.8%

## O=C(c1cc(-c2ccccc2)ccn1)N(O)Cc1ccccc1 [drawing 211]
[1]; Influenza A virus, H3N2, activity conc 10 (μM per method), read-out: CPE H3N2 reduction (%)
  inhibition at 10 µM: -9.3%

## O=C(NO)c1cc(NS(=O)(=O)Cc2cccc(C(F)(F)F)c2)ccn1
[1]; [2]
  inhibition at 50 µM: -5.6%

## O=C(NO)c1cc(NS(=O)(=O)Cc2ccc(Cl)c(Cl)c2)ccn1
[1]; [2]
  inhibition at 50 µM: 53.4%

## O=C(NO)c1cc(NS(=O)(=O)Cc2cc(Cl)cc(Cl)c2)ccn1
[1]; [2]
  inhibition at 20 µM: 28.9%

## O=C(NO)c1cc(NS(=O)(=O)Cc2ccccc2Cl)ccn1
[1]; [2]
  inhibition at 50 µM: 1.5%

## Cc1c(Cc2ccc(Cl)cc2)sc2nc(N)[nH]c(=O)c12 [SAV-7609]
[1]
  CPE H3N2 (insoluble): solubility in the assay: reduction (%) insoluble

## CN(O)C(=O)c1cc2ccccc2cn1 [drawing 199]
[1]; [2]
  inhibition at 50 µM: -0.6%

## O=C(NO)c1cc(NS(=O)(=O)Cc2cccc3cccnc23)ccn1
[1]; [2]
  inhibition at 50 µM: 24.4%
[1]; Influenza A virus, H3N2, read-out: CPE H3N2 IC50
  IC50: 78 µM

## COC1=CC=C(c2ccnc(C(=O)N(O)Cc3ccccc3)c2)CC1
[1]; [2]
  inhibition at 2 µM: -2.5%

## O=C(c1cc(N2CCOCC2)ccn1)N(O)Cc1ccccc1 [drawing 241]
[1]
  CPE H3N2 reduction (%): −3.4%

## O=C(c1cc(N2CCC(F)(F)C2)ccn1)N(O)Cc1ccccc1
[1]; [2]
  inhibition at 20 µM: 4.6%

## N/C(=N\O)c1ccc(C(=O)NO)nc1
[1]; [2]
  inhibition at 50 µM: -4.8%

## O=C(c1cc2ccccc2cn1)N(Cc1ccccc1)OCc1ccccc1 [drawing 179]
[1]; [3]
  inhibition at 5 µM: 1.3%

## CC1(C)C=C(c2ccnc(C(=O)N(O)Cc3ccccc3)c2)CC(C)(C)N1
[1]; [2]
  inhibition at 50 µM: 2.8%

## O=C(c1cc(NS(=O)(=O)Cc2cccc(F)c2)ccn1)N(O)Cc1ccccc1
[1]; [2]
  inhibition at 50 µM: 9.6%

## Nc1ccccc1NC(=O)c1ccc(C(=O)NO)nc1
[1]; [2]
  inhibition at 50 µM: -5.53%

## O=C(NOCc1ccccc1)c1cc(N2CCCCC2)ccn1 [drawing 187]
[1]; [3]
  inhibition at 5 µM: 1%

## O=C(c1cc(C2=CC3CCC(C2)N3)ccn1)N(O)Cc1ccccc1 (stereo not shown) [drawing 283]
[1]; [2]
  inhibition at 50 µM: 5.49%

## O=C(c1cc(N2CCC3(CC2)OCCO3)ccn1)N(O)Cc1ccccc1 [drawing 235]
[1]; [2]
  inhibition at 50 µM: 9.5%

## O=C(NOCc1ccccc1)c1cc2ccccc2cn1 [drawing 182]
[1]; [3]
  inhibition at 5 µM: -1.5%

## CN(C)CCNC(=O)c1cccc(-c2ccnc(C(=O)N(O)Cc3ccccc3)c2)c1 [drawing 230]
[1]; [2]
  inhibition at 50 µM: 8.9%

## CC(C)(C)OC(=O)N1CCC(c2ccnc(C(=O)N(O)Cc3ccccc3)c2)CC1
[1]; [2]
  inhibition at 20 µM: 31.3%

## O=C(c1cc(N2CCC(F)CC2)ccn1)N(O)Cc1ccccc1
[1]; [2]
  inhibition at 50 µM: 34%

## O=C(NO)c1cc(NS(=O)(=O)Cc2ccc(Cl)cc2)ccn1
[1]; [2]
  inhibition at 50 µM: -3.98%

## CC(C)(C)OC(=O)N1CC=C(c2ccnc(C(=O)N(O)Cc3ccccc3)c2)CC1 [drawing 229]
[1]; [3]
  inhibition at 5 µM: 1.2%

## CNC(=O)c1cccc(-c2ccnc(C(=O)N(O)Cc3ccccc3)c2)c1
[1]; [3]
  inhibition at 5 µM: -7.5%

## O=C(c1cc2ccccc2cn1)N(O)Cc1ccccc1 [drawing 200]
[1]; [2]
  inhibition at 50 µM: 34.2%

## O=C(c1cc(N2CCNCC2)ccn1)N(O)Cc1ccccc1
[1]; [2]
  inhibition at 50 µM: -4.5%

## Cc1c(-c2ccccc2)sc2nc(NCCN)[nH]c(=O)c12 [SAV-7588]
[1]; [3]
  inhibition at 5 µM: 2.2%

## Cl.O=C(c1cc(N2CCOCC2)ccn1)N(O)Cc1ccccc1 [drawing 242]
[1]
  CPE H3N2 reduction (%): 6.3%

## CCONC(=O)c1ccc(-c2ccccc2)cn1 [drawing 173]
[1]; [3]
  inhibition at 5 µM: -3%
